Measurements reported in ChEMBL document CHEMBL5331121, “Preferred Conformation-Guided Discovery of Potent and Orally Active HIF Prolyl Hydroxylase 2 Inhibitors for the Treatment of Anemia” (J Med Chem, 2023).

What was measured:
Egl nine homolog 1 = Egl nine homolog 1 (Homo sapiens, UniProt Q9GZT9); experiment: Binding affinity to […] PHD2 (181 to 426 residues) (unknown origin) by fluorescence polarization assay
[1] = Metabolic stability in rat liver microsomes assessed as half life at 1 uM preincubated for 5 mins followed by NADPH addition and measured upto 60 mins by LC-MS/MS analysis; assay type: ADME, Microsome; conditions: time < 65 min
[2] = Metabolic stability in rat liver microsomes assessed as clearance at 1 uM preincubated for 5 mins followed by NADPH addition and measured upto 60 mins by LC-MS/MS analysis; assay type: ADME, Microsome; conditions: time < 65 min, read-out: CLH

Chain of Egl nine homolog 1 (Q9GZT9 whole entry, the tested form may be a part): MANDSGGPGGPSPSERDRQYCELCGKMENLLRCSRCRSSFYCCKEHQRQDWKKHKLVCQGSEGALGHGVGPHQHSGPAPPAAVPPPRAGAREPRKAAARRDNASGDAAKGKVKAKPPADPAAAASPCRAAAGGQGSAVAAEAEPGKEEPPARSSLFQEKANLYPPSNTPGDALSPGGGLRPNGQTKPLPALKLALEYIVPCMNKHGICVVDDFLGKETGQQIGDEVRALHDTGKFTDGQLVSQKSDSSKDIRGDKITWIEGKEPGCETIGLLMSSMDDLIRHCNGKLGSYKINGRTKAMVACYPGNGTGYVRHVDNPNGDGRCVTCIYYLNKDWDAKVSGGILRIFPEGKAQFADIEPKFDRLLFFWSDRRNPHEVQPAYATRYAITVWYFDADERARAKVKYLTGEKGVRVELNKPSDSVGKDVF

Which IC50 (Egl nine homolog 1) does the source give for `O=C(O)CNC(=O)c1ncc(C2CCN(C(=O)c3ccc(F)cc3)CC2)cc1O` here?
The IC50 was 67.5 nM.

For `O=C(O)CNC(=O)c1ncc(C2CCN(C(=O)c3cccc(Cl)c3)CC2)cc1O`, which IC50 (Egl nine homolog 1) is on record?
Its IC50 is 195 nM.

For `COc1ccc(C(=O)N2CCC(c3cnc(C(=O)NCC(=O)O)c(O)c3)CC2)cc1`, which IC50 (Egl nine homolog 1) is on record?
Its IC50 is 54.1 nM.

Which IC50 (Egl nine homolog 1) does the source give for `O=C(O)CNC(=O)c1ncc(C2CCN(C(=O)c3cccs3)CC2)cc1O` here?
The IC50 was 57.6 nM.

Which IC50 (Egl nine homolog 1) does the source give for `O=C(O)CNC(=O)c1ncc(C2CCN(C(=O)c3ccccc3)CC2)cc1O` here?
Its IC50 is 69.7 nM.

With `O=C(O)CNC(=O)c1ncc(C2CCN(C(=O)CNc3ccc(Cl)cc3Cl)CC2)cc1O` as the molecule, how does the IC50 (Egl nine homolog 1) read?
Its IC50 is 32.5 nM.

Which IC50 (Egl nine homolog 1) does the source give for `O=C(O)CNC(=O)c1ncc(C2CCN(C(=O)CNc3ccc(OC(F)(F)F)cc3)CC2)cc1O` here?
Its IC50 is 39.9 nM.

With `O=C(O)CNC(=O)c1ncc(C2CCN(C(=O)c3ccc(Cl)cc3Cl)CC2)cc1O` as the molecule, how does the IC50 (Egl nine homolog 1) read?
The IC50 was 144 nM.

Which IC50 (Egl nine homolog 1) does the source give for `O=C(O)CNC(=O)c1ncc(C2CCN(C(=O)c3ccccn3)CC2)cc1O` here?
Its IC50 is 158 nM.

For `O=C(O)CNC(=O)c1ncc(C#CCOc2ccc(Cl)cc2)cc1O` [DDO-3055], which IC50 (Egl nine homolog 1) is on record?
The IC50 was 15.6 nM.

Which IC50 (Egl nine homolog 1) does the source give for `O=C(O)CNC(=O)c1ncc(-c2cn(CCCc3ccc(Cl)cc3)nn2)cc1O` here?
Its IC50 is 22.7 nM.

With `N#Cc1ccc(C(=O)N2CCC(c3cnc(C(=O)NCC(=O)O)c(O)c3)CC2)cc1` as the molecule, how does the IC50 (Egl nine homolog 1) read?
Its IC50 is 76.5 nM.

What does the source list for `O=C(O)CNC(=O)c1ncc(C2=CCN(S(=O)(=O)Cc3ccc(C(F)(F)F)cc3)CC2)cc1O`?
half-life at 1 µM [1]: 7.35 min; IC50 (Egl nine homolog 1): 13.1 nM; microsomal CLint at 1 µM [2]: 135 µL/min/mg

For `O=C(O)CNC(=O)c1ncc(C2CCN(C(=O)CNc3ccccc3)CC2)cc1O`, which IC50 (Egl nine homolog 1) is on record?
The IC50 was 56.8 nM.

Which IC50 (Egl nine homolog 1) does the source give for `O=C(O)CNC(=O)c1ncc(C2CCN(C(=O)c3ccccc3F)CC2)cc1O` here?
The IC50 was 92.7 nM.
